The target of experiment [1] is T1, ENL YEATS domain (association with H3K27cr) (Homo sapiens, UniProt Q03111).
T1 sequence (Q03111 1-148): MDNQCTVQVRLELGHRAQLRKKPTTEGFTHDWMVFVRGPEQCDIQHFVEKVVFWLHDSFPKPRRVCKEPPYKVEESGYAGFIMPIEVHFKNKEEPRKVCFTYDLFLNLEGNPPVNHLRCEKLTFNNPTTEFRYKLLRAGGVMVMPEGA
Put plainly: biochemical. The conditions noted are these: ENL (YEATS)-H3K27cr HTRF (IC50, μM). How it is done:
(§1) Protein Production. Double stranded DNA fragments encoding the protein sequence of ENL YEATS(1-148) were synthesized (IDT DNA) for assembly-based cloning into a modified expression vector backbone derived from pET21a (Novagen). The protein was fused to a StrepII-SUMO and 6×His tag on the amino and carboxy terminus, respectively. Transformed BL21(DE3) cells (New England Biolabs) were grown at 37° C. in 2×YT growth medium to an OD600 of 0.6. Protein expression was induced at 25° C. with the addition of isopropyl-β-D-thiogalactopyranoside (IPTG) to a final concentration of 0.4 mM. The culture was harvested by centrifugation following a 20-hour incubation and subsequently purified by immobilized metal affinity chromatography. Cells were resuspended 50 mM Tris-HCl pH 8.0, 300 mM NaCl, 10% glycerol, 10 mM imidazole, 1 mM DTT containing Complete EDTA-free protease inhibitor (Roche) and lysed by two passes through a MicroFluidizer at 10,000 psi. The lysate was clarified by centrifugation at 16,000 rpm for 30 minutes at 4° C. The supernatant was passed over NiNTA agarose (QIAGEN) and the protein was eluted in 50 mM Tris-HCl pH 8.0, 300 mM NaCl, 10% glycerol, 250 mM imidazole, 1 mM DTT. Fractions containing the ENL YEATS(1-148) fusion protein were buffer exchanged into 100 mM Tris-HCl pH 8.0, 150 mM NaCl, 1 mM EDTA, 1 mM DTT using PD10 desalting columns (GE Life Sciences). Ulp1 protease was added to cleave the StrepII-SUMO fusion and the reaction mixture was incubated overnight at 4° C. The cleavage reaction mixture was loaded onto a StrepTrap column (GE Life Sciences) and ENL YEATS(1-148) was recovered in the flow through. BRD4 BD1 was purchased from Cayman (Cat. No. 11720).
(§2) Homogenous time-resolved FRET (HTRF) histone-binding assays. Both HTRF assays were performed by combining recombinant protein and synthetic histone peptide in assay buffer (25 mM HEPES pH 7, 20 mM NaCl, 0.2% Pluronic F-127, and 0.05% BSA) with 1 nM LanthaScreen Eu-anti-His Tag antibody (ThermoFisher, Cat. No, PV5597) and 8.9 nM SureLight allophycocyanin-streptavidin (Perkin Elmer, APC-SA, Cat. No. CR130-100). ENL YEATS was used at 5 nM and BRD4 BD1 was used at 10 nM. ENL assays were performed with H3(13-32)K27cr (13.3 and 100 nM, respectively), custom synthesized at ABclonal (N-terminal biotin, C-terminal amide); BRD4 BD1 assay was performed with 13.3 nM tetra-acetylated H4 (BioVision, Cat. No. 7144-01). Once all reagents were combined (with or without peptide), 10 μL was dispensed per well into black 384-well low-volume plates (Corning, Cat. No. 3821) and drug was added by pin tool transfer (Biomek FX). Assays were incubated for 2 or more hours before measurement of HTRF signal on a PHERAstar plate reader (BMG Labtech; simultaneous dual emission; excitation=337 nm, emission 1=665 nm, emission 2=620 nm). HTRF signal (ratio of emission 1 to emission 2) from vehicle-treated wells (maximum signal) and no-peptide-control wells (minimum signal) were used to calculate percent inhibition for drug-treated wells.
On the technique in general: Time-resolved FRET reads energy transfer from a long-lived donor to a nearby acceptor.

The target of a further experiment is T2, BRD4 bromodomain 1 (BD1) (Homo sapiens, UniProt O60885).
T2 construct: Selectivity against BRD4 bromodomain 1 (BD1), measured by HTRF; His; purchased Cayman 11720
Put plainly: BRD4 (BD1)-H4 tetra-acetylated HTRF histone-binding assay. The procedure:
as §1, §2

In another experiment the target is T3, ENL(YEATS)-HiBiT (Homo sapiens, UniProt Q03111).
T3 sequence (Q03111 1-138 limits assumed): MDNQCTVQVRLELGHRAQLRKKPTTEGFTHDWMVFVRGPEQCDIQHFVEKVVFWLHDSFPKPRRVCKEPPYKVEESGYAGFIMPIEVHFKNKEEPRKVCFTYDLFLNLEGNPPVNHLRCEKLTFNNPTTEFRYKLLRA
Description: cell-based.

The values that follow come from US20220274980A1, “PHARMACOLOGICAL INHIBITORS OF THE ENL YEATS DOMAIN” (priority 2019, published 2022).

SMILES strings stand for the structures. pIC50: −log10 of the molar value. Bounds are passed on as bounds.

Description for ENL(YEATS)-HiBiT: Cellular thermal shift assay (CETSA). […] Cells were transferred to 384-well (20,000 cells per well in 20 μL) or 1,536-well (3,000 cells per well in 4 μL) plates and drug was transferred using a 100 nL pin tool for 384-well plates or acoustic transfer (Labcyte, Echo Liquid Handler) for 1,536-well plates. Luminescent detection of HiBiT was performed by combining an equal volume of Nano-Glo HiBiT Lytic Reagent (Promega, HiBiT Lytic Detection System, Cat. No. N3040) in each well. […] Briefly, cells were treated with drug, washed with PBS, heated to various temperatures in a thermocycler, cooled to room temperature, lysed by three rounds of freeze-thaw, and then clarified lystaes were subjected to immunoblot analysis.

What is called IC50 is the midpoint of a concentration-inhibition curve. A high value points to lower potency. By pIC50 is commonly meant the IC50 on a negative log10 scale, so that one unit is a factor of ten. A low value points to a large IC50. On to `CC(C)NC(=O)c1ccc2nc(-c3ccc(C#N)cc3)cn2c1` [Compound 4], for which the IC50 in experiment [1] (Table 1) and in experiment [1] (Table 2) was 2.9 µM in each case. The figures for the pIC50 at BRD4 bromodomain 1 (BD1) (Table 1), on BRD4 bromodomain 1 (BD1) (Table 2) and against ENL(YEATS)-HiBiT were less than 4.30, less than 4.30 and 4.10, respectively.
With `CC(C)NC(=O)c1ccc2nc(-c3ccncc3)cn2c1` [Compound 5], the IC50 in experiment [1] (Table 1) and in experiment [1] (Table 2) was 4.1 µM in each case. The negative-log IC50 (pIC50) on BRD4 bromodomain 1 (BD1) (Table 1) is less than 4.30; at BRD4 bromodomain 1 (BD1) (Table 2), less than 4.30; on ENL(YEATS)-HiBiT, 4.21.
Turning to `O=C(NCc1cccnc1)c1ccc2nc(-c3ccccc3)cn2c1` [Compound 9], the IC50 in experiment [1] (Table 1) and in experiment [1] (Table 2) was 6.8 µM throughout. The pIC50 is less than 4.30 at BRD4 bromodomain 1 (BD1) (Table 1), less than 4.30 at BRD4 bromodomain 1 (BD1) (Table 2) and 4.10 at ENL(YEATS)-HiBiT.
Take `Cc1ccc(-c2cn3cc(C(=O)NC(C)C)ccc3n2)cc1` [Compound 14]: the IC50 in experiment [1] (Table 1) and in experiment [1] (Table 2) was 2.6 µM each time. In addition, the pIC50 was less than 4.30 at BRD4 bromodomain 1 (BD1) (Table 1), less than 4.30 on BRD4 bromodomain 1 (BD1) (Table 2) and 4.10 on ENL(YEATS)-HiBiT.
As for `O=C(NC1CCC1)c1ccc2nc(-c3ccccc3)cn2c1` [Compound 15], the IC50 in experiment [1] (Table 1) and in experiment [1] (Table 2) was 0.506 µM in each case. In addition, the pIC50 was less than 4.30 on BRD4 bromodomain 1 (BD1) (Table 1), less than 4.30 at BRD4 bromodomain 1 (BD1) (Table 2) and 5.39 against ENL(YEATS)-HiBiT.
Take `O=C(NC1CCCC(O)C1)c1ccc2nc(-c3ccccc3)cn2c1` (stereo not drawn) [Compound 16]: the IC50 in experiment [1] (Table 1) and in experiment [1] (Table 2) was 20 µM each time. The pIC50 at BRD4 bromodomain 1 (BD1) (Table 1) was less than 4.30; at BRD4 bromodomain 1 (BD1) (Table 2), less than 4.30; against ENL(YEATS)-HiBiT, 4.10.
Consider `Cc1cccc(-c2cn3cc(C(=O)NC(C)C)ccc3n2)c1` [Compound 17], for which the IC50 in experiment [1] (Table 1) and in experiment [1] (Table 2) was 4.8 µM each time. Also, the pIC50 was less than 4.30 at BRD4 bromodomain 1 (BD1) (Table 1), less than 4.30 at BRD4 bromodomain 1 (BD1) (Table 2) and 4.10 on ENL(YEATS)-HiBiT.
For the molecule `CC(C)NC(=O)c1ccc2nc(-c3cccc(C#N)c3)cn2c1` [Compound 18], the IC50 in experiment [1] (Table 1) and in experiment [1] (Table 2) was 4.5 µM each time. Besides, the pIC50 was less than 4.30 at BRD4 bromodomain 1 (BD1) (Table 1), less than 4.30 at BRD4 bromodomain 1 (BD1) (Table 2) and 4.10 on ENL(YEATS)-HiBiT.
For `COc1cccc(-c2cn3cc(C(=O)NC(C)C)ccc3n2)c1` [Compound 20], the half-maximal inhibitory concentration (IC50) in experiment [1] (Table 1) and in experiment [1] (Table 2) was 24 µM throughout. In addition, the pIC50 on BRD4 bromodomain 1 (BD1) (Table 1) is less than 4.30; on BRD4 bromodomain 1 (BD1) (Table 2), less than 4.30; against ENL(YEATS)-HiBiT, 4.10.
With `COc1ccc(-c2cn3cc(C(=O)NC(C)C)ccc3n2)cc1` [Compound 22], the IC50 in experiment [1] (Table 1) and in experiment [1] (Table 2) was 1.3 µM throughout. Also, the pIC50 on BRD4 bromodomain 1 (BD1) (Table 1) was less than 4.30; at BRD4 bromodomain 1 (BD1) (Table 2), less than 4.30; on ENL(YEATS)-HiBiT it was 4.10.
In the case of `O=C(NC1CCCC1)c1ccc2nc(-c3ccccc3)cn2c1` [Compound 23], the half-inhibitory concentration (IC50) in experiment [1] (Table 1) and in experiment [1] (Table 2) was 1.8 µM each time. Moreover, the pIC50 on BRD4 bromodomain 1 (BD1) (Table 1) is less than 4.30; on BRD4 bromodomain 1 (BD1) (Table 2), less than 4.30; against ENL(YEATS)-HiBiT, 4.39.
As to `CC(NC(=O)c1ccc2nc(-c3ccccc3)cn2c1)c1ccncc1` (stereo not drawn) [Compound 24], the IC50 in experiment [1] (Table 1) and in experiment [1] (Table 2) was 12 µM each time. The pIC50 is less than 4.30 at BRD4 bromodomain 1 (BD1) (Table 1), less than 4.30 on BRD4 bromodomain 1 (BD1) (Table 2) and 4.10 against ENL(YEATS)-HiBiT.
Consider `O=C(N[C@@H]1CC[C@H]1O)c1ccc2nc(-c3ccccc3)cn2c1` [Compound 124], for which the IC50 in experiment [1] (Table 1) and in experiment [1] (Table 2) was 21 µM each time. At ENL(YEATS)-HiBiT, the pIC50 was 4.25.
For `CO[C@@H]1CC[C@H]1NC(=O)c1ccc2nc(-c3ccccc3)cn2c1` [Compound 126], the IC50 in experiment [1] (Table 1) and in experiment [1] (Table 2) was 61 µM each time. At ENL(YEATS)-HiBiT, this molecule gave a pIC50 of 4.66.
For the molecule `COC[C@@H]1CC[C@@H]1NC(=O)c1ccc2nc(-c3ccccc3)cn2c1` [Compound 127], the IC50 in experiment [1] (Table 1) and in experiment [1] (Table 2) was 58 µM each time. This molecule had a negative logarithm of the IC50 (pIC50) against ENL(YEATS)-HiBiT of 4.49.
